What was measured:
[1] = test system: KURAMOCHI; test: drug sensitivity score (DSS2) on cancer cell count; higher = more sensitive; extreme values may be limits of the assay; conditions: 72 h
Summary of the method: (§1)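 Cancer cell counts came from 10× images (4 fields) of fixed cells immunostained for CK8/18 with Hoechst. The ovarian cancer cells had been grown alone or in 1:1 direct co-culture with lung or skin fibroblasts on 384-well plates pre-spotted acoustically with 528 approved and investigational compounds at 5 concentrations, then treated for 72 h. Breeze was used to derive a drug sensitivity score from logistic fits of the data.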

[2] = test system: OVCAR8; test: as above; conditions: 72 h
Summary of the method: as §1

[3] = co-cultured fibroblast: BJHTERT
[4] = co-cultured fibroblast: none (monoculture)

Row | SMILES | drug sensitivity score [1, 3] [DSS] | drug sensitivity score ([1]; co-cultured fibroblast: WI38) [DSS] | drug sensitivity score [1, 4] [DSS] | drug sensitivity score [2, 3] [DSS] | drug sensitivity score ([2]; co-cultured fibroblast: WI38) [DSS] | drug sensitivity score [2, 4] [DSS]
1 | CCCCCOC(=O)Nc1nc(=O)n([C@@H]2O[C@H](C)[C@@H](O)[C@H]2O)cc1F [Capecitabine] | 3.3 | 0 | 0 | 0 | 2.7 | 1.2
2 | Cc1ccc(C(=O)Nc2cccc(C(F)(F)F)c2)cc1Nc1nc(-c2cccnc2)nc2c1cnn2C [NVP-BHG712] | 5.8 | 6.7 | 8.9 | 0 | 6.8 | 7.5
3 | CCC1(c2ccc(N)cc2)CCC(=O)NC1=O (stereo unspecified) [Aminoglutethimide] | 5.8 | 0 | 0 | 0 | 0.4 | 0
4 | COc1cc2ncnc(Nc3ccc(F)c(Cl)c3)c2cc1OCCCN1CCOCC1 [Gefitinib] | 2.9 | 3 | 0 | 5.8 | 0 | 3.7
5 | O=C(c1ccc(C(=O)N2CCC(N3CCCC3)CC2)c(Nc2ccccc2)c1)N1CCC(N2CCCC2)CC1 [UNC1215] | 0 | 0 | 0 | 0 | 0 | 0
6 | COC(=O)N[C@@H](C)CNc1nccc(-c2cn(C(C)C)nc2-c2cc(Cl)cc(NS(C)(=O)=O)c2F)n1 [Encorafenib] | 0 | 0 | 0 | 0 | 0 | 0.1
7 | Cc1nc(-c2cn3c(n2)-c2ccc(-c4cnn(C(C)(C)C(N)=O)c4)cc2OCC3)n(C(C)C)n1 [Taselisib] | 9.2 | 4.7 | 10.7 | 3.1 | 0 | 3.3
8 | C[C@H](Nc1ncnc2[nH]cnc12)c1cc2ccc(F)cc2nc1-c1ccccn1 [AMG319] | 1.2 | 0 | 0 | 0 | 5.8 | 0
9 | Cc1cc(OCc2nnc(SC3CCCC3)n2-c2cccnc2)ccc1-c1ccc(S(C)(=O)=O)cc1 [NMS-873] | 9 | 9 | 8.9 | 5.8 | 4.7 | 10.3
10 | Cc1nc(=O)c2cc(CN(C)c3ccc(C(=O)N[C@@H](CCC(=O)O)C(=O)O)s3)ccc2[nH]1 [Raltitrexed] | 11.2 | 16.8 | 10.4 | 16.4 | 18.3 | 15.9
11 | CCOc1ccn(-c2ccc(F)cc2)c(=O)c1C(=O)Nc1ccc(Oc2ccnc(N)c2Cl)c(F)c1 | 0.6 | 0 | 0 | 0 | 0 | 0
12 | Cc1cc(F)c(C(=O)Nc2cccc(-c3nncn3C(C)C)n2)cc1-n1cnc(C2CC2)c1 [Selonsertib] | 0 | 0 | 0 | 0 | 0 | 0
13 | C[C@@H]1CN(C(=O)c2ccc(NC(=O)c3cc(O[C@H](C)c4c(Cl)ccc(F)c4Cl)c(N)nn3)cc2)C[C@H](C)N1 [Ensartinib] | 1 | 1 | 0 | 0 | 0.1 | 0
14 | CCC/C=C/C=C/C(=O)O[C@H]1/C(=C/C(=O)OC)C[C@H]2C[C@H]([C@@H](C)O)OC(=O)C[C@H](O)C[C@@H]3C[C@H](OC(C)=O)C(C)(C)[C@](O)(C[C@@H]4C/C(=C/C(=O)OC)C[C@H](/C=C/C(C)(C)[C@]1(O)O2)O4)O3 [Bryostatin 1] | 0 | 0 | 6.4 | 2.9 | 0 | 0
15 | CC1(C)C(C(=O)Nc2ccc(S(=O)(=O)c3ccc(NC(=O)C4C(C)(C)C4(C)C)cc3)cc2)C1(C)C [BRD7116] | 0.5 | 1.9 | 0 | 0 | 0 | 0
16 | CC1(COc2ccc3c(c2)ncn3-c2ccc3cccc(N4CCC(N)CC4)c3n2)COC1 [Crenolanib] | 12.6 | 10.5 | 18 | 4.7 | 14.6 | 5.5
17 | C1=N/C2=N/c3ccc(OCCN4CCCC4)c(c3)COC/C=C/COCc3cccc(c3)C(=C1)N2 [Pacritinib] | 8.2 | 8.6 | 4.4 | 9.5 | 5.6 | 7.7
18 | Cc1cccc(-c2[nH]c(CNc3ccccc3F)nc2-c2ccc3ncnn3c2)n1 [TEW-7197] | 0 | 0 | 0 | 11.2 | 16.2 | 4.2
19 | O=C(NCc1ccncc1)C12CC3CC(C1)CC(c1ccc(Cl)cc1)(C3)C2 | 5.8 | 5.6 | 3.7 | 3.9 | 3.6 | 5
20 | Cc1nc(NC(=O)N2CCC[C@H]2C(N)=O)sc1-c1ccnc(C(C)(C)C(F)(F)F)c1 [Alpelisib] | 0 | 0 | 0 | 0 | 0 | 0.4
21 | COc1ccc(C[C@H](NC(=O)[C@H](C)NC(=O)CN2CCOCC2)C(=O)N[C@@H](Cc2ccccc2)C(=O)C2(C)CO2)cc1 (stereo in doubt) [ONX-0914] | 15.7 | 17.7 | 17.6 | 8.4 | 16.1 | 17.8
22 | N.N.[Cl][Pt][Cl] [Cisplatin] | 1.6 | 6.5 | 4.7 | 7.2 | 9.4 | 8.5
23 | S=C(NCc1ccc2c(c1)OCO2)N1CCN(c2ncnc3c2oc2ccccc23)CC1 [Amuvatinib] | 2.5 | 0.5 | 0 | 8.6 | 0 | 2.2
24 | Cc1ccc(-n2nc(C(C)(C)C)cc2NC(=O)Nc2ccc(OCCN3CCOCC3)c3ccccc23)cc1 [Doramapimod] | 4.2 | 3.4 | 2.8 | 4.4 | 0.1 | 1.4
25 | c1cc(CN2CCCNCCNCCCNCC2)ccc1CN1CCCNCCNCCCNCC1 [Plerixafor] | 0 | 0 | 0.6 | 0.5 | 0 | 0.3
26 | CCn1c(C(=O)N(C2CC2)C2CC2)cc2c3c(ncn3C)c(Nc3cc(C)n(C)n3)nc21 | 3 | 1.5 | 0 | 0 | 1.1 | 1.3

Source: the supplement of paper PMC12420376
